Test results from PubChem BioAssay AID1963971 (Molecular Pharmacology Branch, DTP, NCI, 2024).

Tested on: 953936-095-R-J2-PDC spheroids with HUVEC/MSC, viability
Assay: Anticancer human tumor 953936-095-R-J2-PDC patient-derived cervical squamous cell carcinoma cell line growth inhibition [PI3K]
Conditions: for IC50: curve of first compound; for viability, T/C: stronger effect = lower value
Procedure, shortened: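 Multi-cell spheroids combine tumor cells with HUVEC and human MSCs, treated with targeted agents alone or with inavolisib, alpelisib, duvelisib or copanlisib. Concentrations fall in half-log steps from at or near clinical Cmax, or from 10 microM where Cmax is unknown; viability read-out.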

[1] = second compound 0.0316 µM, first compound 0.0316 µM
[2] = second compound 0.0316 µM, first compound 0.1 µM
[3] = second compound 0.0316 µM, first compound 0.316 µM
[4] = second compound 0.0316 µM, first compound 1 µM
[5] = second compound 0.0316 µM, first compound 3.16 µM
[6] = second compound 0.0316 µM, first compound 10 µM
[7] = second compound 0.1 µM, first compound 0.0316 µM
[8] = second compound 0.1 µM, first compound 0.1 µM
[9] = second compound 0.1 µM, first compound 0.316 µM
[10] = second compound 0.1 µM, first compound 1 µM
[11] = second compound 0.1 µM, first compound 3.16 µM
[12] = second compound 0.1 µM, first compound 10 µM
[13] = second compound 0.316 µM, first compound 0.0316 µM
[14] = second compound 0.316 µM, first compound 0.1 µM
[15] = second compound 0.316 µM, first compound 0.316 µM
[16] = second compound 0.316 µM, first compound 1 µM
[17] = second compound 0.316 µM, first compound 3.16 µM
[18] = second compound 0.316 µM, first compound 10 µM
[19] = second compound 1 µM, first compound 0.0316 µM
[20] = second compound 1 µM, first compound 0.1 µM
[21] = second compound 1 µM, first compound 0.316 µM
[22] = second compound 1 µM, first compound 1 µM
[23] = second compound 1 µM, first compound 3.16 µM
[24] = second compound 1 µM, first compound 10 µM
[25] = second compound 3.16 µM, first compound 0.0316 µM
[26] = second compound 3.16 µM, first compound 0.1 µM
[27] = second compound 3.16 µM, first compound 0.316 µM
[28] = second compound 3.16 µM, first compound 1 µM
[29] = second compound 3.16 µM, first compound 3.16 µM
[30] = second compound 3.16 µM, first compound 10 µM
[31] = second compound 10 µM, first compound 0.0316 µM
[32] = second compound 10 µM, first compound 0.1 µM
[33] = second compound 10 µM, first compound 0.316 µM
[34] = second compound 10 µM, first compound 1 µM
[35] = second compound 10 µM, first compound 3.16 µM
[36] = second compound 10 µM, first compound 10 µM
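Further: spheroids exposed to compounds for seven days before read-out.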

SMILES: CC1(C)CCC(CN2CCN(c3ccc(C(=O)NS(=O)(=O)c4ccc(NCC5CCOCC5)c([N+](=O)[O-])c4)c(Oc4cnc5[nH]ccc5c4)c3)CC2)=C(c2ccc(Cl)cc2)C1 + CC(Nc1ncnc2nc[nH]c12)c1cc2cccc(Cl)c2c(=O)n1-c1ccccc1
- IC50 (second compound 0.0316 µM): 7.41 µM
- IC50 (second compound 0.1 µM): 6.33 µM
- IC50 (second compound 0.316 µM): 7.43 µM
- IC50 (second compound 1 µM): 7.16 µM
- IC50 (second compound 3.16 µM): 6.61 µM
- IC50 (second compound 10 µM): 4.9 µM
- viability, T/C [1]: 84.4%
- viability, T/C [2]: 102%
- viability, T/C [3]: 101%
- viability, T/C [4]: 90.2%
- viability, T/C [5]: 94.7%
- viability, T/C [6]: 34.3%
- viability, T/C [7]: 93.8%
- viability, T/C [8]: 104%
- viability, T/C [9]: 112%
- viability, T/C [10]: 98%
- viability, T/C [11]: 78.8%
- viability, T/C [12]: 31%
- viability, T/C [13]: 101%
- viability, T/C [14]: 93.9%
- viability, T/C [15]: 104%
- viability, T/C [16]: 96.3%
- viability, T/C [17]: 90.5%
- viability, T/C [18]: 35.8%
- viability, T/C [19]: 106%
- viability, T/C [20]: 97.1%
- viability, T/C [21]: 82.5%
- viability, T/C [22]: 88.7%
- viability, T/C [23]: 88.8%
- viability, T/C [24]: 34.4%
- viability, T/C [25]: 80.4%
- viability, T/C [26]: 79.4%
- viability, T/C [27]: 80.6%
- viability, T/C [28]: 80.5%
- viability, T/C [29]: 67.7%
- viability, T/C [30]: 39.2%
- viability, T/C [31]: 57.5%
- viability, T/C [32]: 70.3%
- viability, T/C [33]: 59.6%
- viability, T/C [34]: 60.8%
- viability, T/C [35]: 62%
- viability, T/C [36]: 31.1%

SMILES: C[C@@H](NC(=O)c1ncnc(N)c1Cl)c1ncc(C(=O)Nc2cc(C(F)(F)F)c(Cl)cn2)s1 + CC(Nc1ncnc2nc[nH]c12)c1cc2cccc(Cl)c2c(=O)n1-c1ccccc1
- IC50 (second compound 0.0316 µM): > 10 µM
- IC50 (second compound 0.1 µM): > 10 µM
- IC50 (second compound 0.316 µM): > 10 µM
- IC50 (second compound 1 µM): > 10 µM
- IC50 (second compound 3.16 µM): > 10 µM
- IC50 (second compound 10 µM): > 10 µM
- viability, T/C [1]: 103%
- viability, T/C [2]: 98.3%
- viability, T/C [3]: 101%
- viability, T/C [4]: 108%
- viability, T/C [5]: 101%
- viability, T/C [6]: 97.2%
- viability, T/C [7]: 113%
- viability, T/C [8]: 106%
- viability, T/C [9]: 106%
- viability, T/C [10]: 101%
- viability, T/C [11]: 117%
- viability, T/C [12]: 96.4%
- viability, T/C [13]: 107%
- viability, T/C [14]: 101%
- viability, T/C [15]: 94.3%
- viability, T/C [16]: 95.4%
- viability, T/C [17]: 103%
- viability, T/C [18]: 94.6%
- viability, T/C [19]: 96.5%
- viability, T/C [20]: 91.3%
- viability, T/C [21]: 91.8%
- viability, T/C [22]: 102%
- viability, T/C [23]: 94.8%
- viability, T/C [24]: 86.2%
- viability, T/C [25]: 87.2%
- viability, T/C [26]: 79.5%
- viability, T/C [27]: 86.1%
- viability, T/C [28]: 94%
- viability, T/C [29]: 80.1%
- viability, T/C [30]: 79.8%
- viability, T/C [31]: 60.9%
- viability, T/C [32]: 76.9%
- viability, T/C [33]: 63.1%
- viability, T/C [34]: 80.7%
- viability, T/C [35]: 61.7%
- viability, T/C [36]: 55.1%
